{
  "source": "patent US11186543B2",
  "about": "“Crystalline form of 3-((L-valyl)amino))-3,3-dideuterium-1-propanesulfonic acid, preparation method and uses thereof” (RISEN (SUZHOU) PHARMA TECH CO., LTD., priority 2018, dated 2021)",
  "type_in_all_cases": "physicochemical",
  "key": {"[1]": {"test": "Dynamic Vapor Sorption (DVS) analysis", "conditions": "from 0% RH to 80% RH, 25° C.", "procedure": "The dynamic vapor sorption (DVS) instrument involved herein is Q5000TGA from TA Instruments; detection conditions: a platinum crucible, a protective atmosphere of nitrogen, a gas flow rate of 10 mL/min; and the following detection method: [table] 5. Dynamic Vapor Sorption (DVS) Analysis of Said Crystalline Form A The determination was carried out using the aforementioned instruments, determination methods, operating conditions, and parameters."}, "[2]": {"test": "Thermogravimetric Analysis (TGA)", "procedure": "The thermogravimetric analyzer (TGA) involved herein is Q500TGA from TA Instruments; detection conditions: a platinum crucible, a protective atmosphere of nitrogen, a gas flow rate of 40 mL/min; and the following detection method: a Hi-Res sensitivity of 3.0, ramp 10.00° C./min, res 5.0 to 150.00° C., and ramp 10.00° C./min to 350° C. 4. Thermogravimetric Analysis (TGA) of Said Crystalline Form A The determination was carried out using the aforementioned instruments, determination methods, operating conditions, and parameters."}, "[3]": {"test": "Stability test of Crystalline Form A (XRD and DSC, Day 0 / Day 10)", "conditions": "for change of crystalline form (XRD test): within 10 days", "procedure": "Sample and experimental preparation: the Crystalline Form A as prepared in Example 2 was taken as a sample; a proper amount of the sample was weighted and placed on a watch glass to form a thin layer of about 3˜5 mm in thickness.\nExperimental conditions: conventional (sealed and kept in darkness at 25° C.), long-term (uncovered and kept in darkness with −60% RH at 25° C.), and accelerated (uncovered and kept in darkness with −75% RH at 40° C.) conditions.\nDetection time: Day 0, Day 10.\nDetected items: crystalline forms (XRD test), and melting points (DSC test)."}},
  "data": [
    {"compound": "[2H]C([2H])(CCS(=O)(=O)O)NC(=O)[C@@H](N)C(C)C", "note": "[Crystalline Form A, 3-((L-valyl)amino)-3,3-dideuterium-1-propanesulfonic acid]", "values": [
      {"measurement": "hygroscopicity class (DVS determination criteria)", "setting": "[1]", "value": "slightly hygroscopic"},
      {"measurement": "weight change (DVS isotherm)", "setting": "[1]", "value": "about 0.3 wt %"},
      {"measurement": "weight loss (TGA)", "setting": "[2]; before 120° C.", "value": "about 0.9 wt %"},
      {"measurement": "decomposition temperature (TGA)", "setting": "[2]; ramp 10° C./min, nitrogen", "value": "about 326 °C"},
      {"measurement": "variation of melting point (DSC test)", "setting": "[3]", "value": "±1 °C"},
      {"measurement": "change of crystalline form (XRD test)", "setting": "[3]; accelerated: uncovered, kept in darkness with −75% RH at 40° C.", "value": "no change was detected"},
      {"measurement": "change of crystalline form (XRD test)", "setting": "[3]; conventional: sealed, kept in darkness at 25° C.", "value": "no change was detected"},
      {"measurement": "change of crystalline form (XRD test)", "setting": "[3]; long-term: uncovered, kept in darkness with −60% RH at 25° C.", "value": "no change was detected"}
    ]}
  ]
}
